Data taken from patent publication US20020110808A1, “Toxicant-induced differential gene expression” (priority 2000, published 2002).

Experiments:
HepG2 cells [1] = experiment: Dot blot array expression assay; conditions: 24 hr, two-fold threshold
Procedure: The quality of the PCR reactions was assessed by agarose gel electrophoresis. Human genomic DNA (Clontech) and PCR products were robotically dotted in 100 nl aliquots onto positively-charged nylon membranes using the BioDot instrument (Cartesian Technologies, Inc.). After uv-crosslinking, the membranes were rinsed in 2× SSC and allowed to air-dry. Prior to addition of labeled cDNA probes, membranes were washed in boiling 1% SDS, rinsed with 6× SSC, and incubated in 5 mL of 42° C. Microhyb solution (Research Genetics) for 2 hr. Ten minutes prior to addition of the probes, the Microhyb solution was replaced with an equal amount of fresh 42° C. Microhyb solution containing denatured human Cot-1 DNA (Gibco BRL) and poly(dA) primer (Research Genetics) (both at final concentrations of 1 ng/μl).
For each reverse transcription reaction, 2 μg of mRNA was incubated with oligo(dT) primer (200 ng/μl) at 70° C. for 10 minutes. Tubes were chilled and spun briefly. The following reagents (with the final concentrations in parentheses) were added: first strand buffer (1×), DTT (10 mM), dNTP mix (1 mM each of dATP, dGTP, dTTP), [α-^33P]dCTP (3.3 μCi/μl) and Superscript II Reverse Transcriptase (10 units/μL). The samples were kept at 37° C. for 1.5 hr. Unincorporated nucleotides were removed by spinning the reaction mixture through a G-50 column. […] Probe quality was assessed by electrophoresis on a 10% denaturing polyacrylamide minigel. Denatured probes were added directly to the Microhyb solution and hybridized overnight at 42° C. Membranes were washed twice under each of the following conditions: (1) 2× SSC/0.1% SDS at room temperature, 5 min; (2) 0.2× SSC/0.1% SDS at room temperature, 5 min; (3) 0.2× SSC/0.1% SDS at 42° C., 15 min, (4) 0.1× SSC/0.1% SDS at 68° C., 15 min. Membranes were then rinsed briefly in 2× SSC at room temperature, covered with Saran wrap, and exposed to storage phoshpor screens. After three days, screens were scanned using a Storm phosphorimager (Molecular Dynamics). Images were analyzed using ImageQuant software (Molecular Dynamics).
We employed a rapid dot blot assay as a secondary screen for gene expression changes. We tested each of the unique clones against each of the three treatments. […] For these clones, the dot blot assay functioned not as a confirmation assay but as an initial screen for differential expression. Dot blots were prepared by robotically arraying subclone-derived PCR products in quadruplicate onto positively charged nylon membranes. […] In general, each dot consisted of over 80 ng of PCR product, as estimated by inspection of the PCR reactions run on agarose gels. This high quantity of DNA ensured that saturation of spots, with consequent loss of quantitation, would not occur. Spots of genomic DNA were included on each filter to allow normalization between control and treated sample intensities.

HepG2 cells [2] = experiment: cDNA array (GF200) expression profiling; assay type: cell-based, human
Procedure: Cells were grown in DMEM/F12 medium with 10% fetal bovine serum in tissue culture flasks for 3 days following splitting, at which time they were at or near confluency. […] For each treated sample, an untreated control flask was set up with the same medium. Following the treatment period, mRNA was isolated by affinity purification on oligo(dT) cellulose resin using the Poly(A) Pure mRNA isolation kit from Ambion. RNA quality was assessed by agarose gel electrophoresis, and yields were determined by absorbance at 260 nm.
Radiolabeled cDNA for array hybridizations were prepared as follows. To a solution of 2 μg of RNA in 8 μl DEPC-treated water was added 2 μl of 1 μg/μl oligo(dT) (10-20 mer mixture, Research Genetics). After incubation for 10 min at 70° C., the solution was chilled on ice for 2 min, and then added to 6 μl of 5× first strand buffer (250 mM Tris-HCl (pH 8.3), 375 mM KCl, 15 mM MgCl2; Gibco-BRL), 1 μl of 0.1M DTT, 1.5 μl dNTP mix (20 mM each dATP, dGTP and dTTP), 10 μl of 10 mCi/ml [α-^33P]dCTP (1000 Ci/mmol, Amersham), and 1.5 μl of 200 U/μl reverse transcriptase (Superscript II, Gibco-BRL). Following a 90 min incubation at 37° C., cDNA targets were purified by passage through G-50 Sephadex spin columns (Pharmacia) or Bio-Spin 6 columns (BioRad).
GF200 cDNA arrays (Research Genetics) were washed in 0.5% boiling SDS for 5 min and prehybridized for 3 hrs at 42° C. in 5 ml MicroHyb solution (Research Genetics) containing 5 μl of 1 μg/ml poly(dA) (Research Genetics) and 5 μl of 1 μg/ml human Cot-I DNA (Gibco-BRL) that was denatured for 3 min at 100° C. prior to use. Labeled target nucleic acids, boiled for 3 min, were added directly, and hybridization was allowed to proceed for 16-18 hr at 42° C. in roller bottles in hybridization ovens. Arrays were washed twice in 2× SSC, 1% SDS at room temperature for 2 min, and then twice in 0.5× SSC, 1% SDS at 65° C. for 20 min. Arrays were exposed to storage phosphor screens for 3 days and scanned using a phosphorimager (Molecular Dynamics). Arrays were stripped for reuse by placing in boiling 0.5% SDS and then incubating for 1.5 hr with shaking at room temperature, allowing to solution to cool. After stripping, arrays were exposed to storage phosphor screens overnight to confirm loss of signal.
Spot intensities were determined using Pathways software (Research Genetics). Data from quadruplicate sets of hybridizations were normalized by local regression using NLR software (Tom Kepler, North Carolina State University). Cluster analysis was carried out using the Clustan Graphics software package from Clustan Limited (Edinburgh).

## CC(=O)Nc1ccc(O)cc1 [acetaminophen]
HepG2 cells [1]
  Number of 27 unconfirmed or non-matching clones showing an expression change: 7
HepG2 cells [2]; 1 to 24 hr time course, 20 mM acetaminophen, 16 mM caffeine, 100 mM thioacetamide
  Number of genes with statistically significant (p<0.05) change in expression in three or more adjacent time points: 258
HepG2 cells [2]; 24 hr, 20 mM acetaminophen, wash 0.5× SSC at 65° C.
  LDH-A down-regulation on arrays: 11 fold
HepG2 cells [2]; acetaminophen, 24-hr time point
  Metallothionein-1G induction on arrays: 18 fold
HepG2 cells [2]; acetaminophen, 12 hr
  TTF-1 interacting peptide 21 up-regulation on arrays: 2.6 fold
